Source: BigSolDB 2.1

O=C(O)c1cc2ccccc2[nH]1
Conditions	solubility (mole fraction)
in 1,4-dioxane, 286.35 K	0.00276
in 1,4-dioxane, 291.25 K	0.00343
in 1,4-dioxane, 297.05 K	0.00427
in 1,4-dioxane, 301.95 K	0.00476
in 1,4-dioxane, 306.95 K	0.0052
in 1,4-dioxane, 312.15 K	0.00592
in 1,4-dioxane, 317.25 K	0.00636
in 1,4-dioxane, 321.65 K	0.00689
in 1,4-dioxane, 326.55 K	0.00728
in 1,4-dioxane, 331.95 K	0.00791
in 1,4-dioxane, 336.65 K	0.00866
in dichloromethane, 283.15 K	0.000684
in dichloromethane, 287.15 K	0.000724
in dichloromethane, 292.75 K	0.000873
in dichloromethane, 295.65 K	0.00104
in dichloromethane, 299.05 K	0.00119
in dichloromethane, 302.65 K	0.00134
in dichloromethane, 307.25 K	0.00168
in dichloromethane, 313.15 K	0.00224
in ethanol, 278.15 K	0.0569
in ethanol, 283.15 K	0.062
in ethanol, 287.95 K	0.0666
in ethanol, 292.75 K	0.0701
in ethanol, 297.95 K	0.078
in ethanol, 303.05 K	0.0816
in ethanol, 308.35 K	0.0881
in ethanol, 313.25 K	0.0974
in ethanol, 318.65 K	0.102
in ethanol, 324.95 K	0.116
in ethanol, 329.85 K	0.12
in ethanol, 336.25 K	0.135
in ethanol, 342.75 K	0.148
in ethanol, 348.25 K	0.154
in ethanol, 353.15 K	0.165
in ethyl acetate, 284.05 K	0.0433
in ethyl acetate, 290.45 K	0.06
in ethyl acetate, 294.65 K	0.0735
in ethyl acetate, 299.55 K	0.0865
in ethyl acetate, 304.65 K	0.1
in ethyl acetate, 309.35 K	0.108
in ethyl acetate, 313.95 K	0.116
in ethyl acetate, 318.65 K	0.121
in ethyl acetate, 324.35 K	0.128
in ethyl acetate, 328.75 K	0.134
in ethyl acetate, 333.65 K	0.14
in isopropanol, 278.35 K	0.0412
in isopropanol, 285.15 K	0.0525
in isopropanol, 291.05 K	0.0606
in isopropanol, 298.15 K	0.0701
in isopropanol, 305.55 K	0.0855
in isopropanol, 310.15 K	0.0949
in isopropanol, 315.75 K	0.108
in isopropanol, 321.35 K	0.119
in isopropanol, 328.65 K	0.131
in isopropanol, 333.35 K	0.149
in isopropanol, 338.75 K	0.161
in isopropanol, 342.25 K	0.171
in isopropanol, 348.15 K	0.191
in isopropanol, 353.25 K	0.201
in isopropanol, 358.15 K	0.219
in methanol, 278.15 K	0.0679
in methanol, 283.35 K	0.0695
in methanol, 288.95 K	0.0723
in methanol, 293.25 K	0.0752
in methanol, 298.15 K	0.0856
in methanol, 303.35 K	0.0925
in methanol, 307.85 K	0.102
in methanol, 312.95 K	0.118
in methanol, 317.75 K	0.135
in methanol, 323.15 K	0.159
in methanol, 328.25 K	0.189
in methanol, 333.15 K	0.23
in n-butanol, 278.15 K	0.0478
in n-butanol, 285.35 K	0.0538
in n-butanol, 291.05 K	0.0605
in n-butanol, 298.55 K	0.0687
in n-butanol, 305.25 K	0.0758
in n-butanol, 310.75 K	0.0832
in n-butanol, 315.15 K	0.0909
in n-butanol, 321.75 K	0.101
in n-butanol, 328.35 K	0.112
in n-butanol, 333.95 K	0.125
in n-butanol, 338.15 K	0.14
in n-butanol, 342.45 K	0.143
in n-butanol, 348.25 K	0.16
in n-butanol, 353.45 K	0.174
in n-butanol, 358.15 K	0.19
in n-propanol, 278.25 K	0.0437
in n-propanol, 285.45 K	0.0521
in n-propanol, 291.35 K	0.0588
in n-propanol, 298.15 K	0.068
in n-propanol, 305.75 K	0.0801
in n-propanol, 311.25 K	0.088
in n-propanol, 317.75 K	0.0993
in n-propanol, 322.15 K	0.105
in n-propanol, 328.05 K	0.115
in n-propanol, 333.55 K	0.128
in n-propanol, 339.15 K	0.138
in n-propanol, 344.85 K	0.151
in n-propanol, 349.75 K	0.162
in n-propanol, 353.15 K	0.176
in n-propanol, 358.15 K	0.18
in toluene, 287.85 K	0.00052
in toluene, 293.65 K	0.000645
in toluene, 297.95 K	0.000722
in toluene, 302.85 K	0.000786
in toluene, 307.05 K	0.000898
in toluene, 311.55 K	0.000989
in toluene, 313.55 K	0.00104
in toluene, 317.45 K	0.00113
in toluene, 325.15 K	0.00155
in toluene, 337.85 K	0.00295
in toluene, 342.55 K	0.00379
in toluene, 348.25 K	0.00427
in toluene, 360.15 K	0.00642
in water, 293.15 K	6.79e-05
in water, 298.15 K	6.88e-05
in water, 303.15 K	7.03e-05
in water, 308.05 K	7.17e-05
in water, 312.65 K	7.88e-05
in water, 318.15 K	9.36e-05
in water, 323.15 K	0.000115
in water, 328.15 K	0.000149
in water, 333.15 K	0.0002
in water, 338.15 K	0.00028
in water, 343.15 K	0.000409
in water, 348.15 K	0.000616
in water, 353.15 K	0.000962
in water, 358.15 K	0.00155
